{
  "source": "patent US6656951B2",
  "about": "“8-aza-bicyclo[3.2.1]octan-3-ol derivatives of 2,3-dihydro-1,4-benzodioxan as 5-HT1A antagonists” (Wyeth, priority 2001, dated 2003)",
  "key": {"[1]": {"molecular_target": "T1, cloned human 5-HT1A receptors (Homo sapiens, UniProt P08908)", "T1 construct": "expressed in transfected cells; membranes", "T1 sequence (P08908 1-422)": "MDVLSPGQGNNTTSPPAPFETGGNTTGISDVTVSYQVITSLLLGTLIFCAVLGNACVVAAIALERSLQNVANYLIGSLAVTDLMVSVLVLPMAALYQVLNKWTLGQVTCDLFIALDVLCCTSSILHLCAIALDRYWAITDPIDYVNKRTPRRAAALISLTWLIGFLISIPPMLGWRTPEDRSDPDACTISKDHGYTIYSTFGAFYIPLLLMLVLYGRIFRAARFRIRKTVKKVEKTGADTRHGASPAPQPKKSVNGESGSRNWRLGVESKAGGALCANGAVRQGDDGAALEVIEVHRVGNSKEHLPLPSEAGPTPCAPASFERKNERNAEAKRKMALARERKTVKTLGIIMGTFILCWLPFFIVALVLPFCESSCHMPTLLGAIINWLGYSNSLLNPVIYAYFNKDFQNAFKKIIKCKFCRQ", "assay": "[35S]-GTPγS binding to assess agonism/antagonism at the 5-HT1A receptor", "assay_type": "biochemical", "method": "Assessment of Agonism/Antagonism at the 5-HT1A Receptor Using [^35S]-GTPγS Binding to Cloned Human 5-HT1A Receptors:\nThe [^35S]-GTPγS binding assay was similar to that used by Lazareno and Birdsall (Br. J. Pharmacol. 1993, 109, 1120). Briefly, 5-HT1A cloned receptor membrane fragments (as used for 5-HT1A receptor binding assays) were stored at −70° C. until needed. When needed, membranes were rapidly thawed, centrifuged at 40,000×g for 10 minutes and resuspended at 4° C. for 10 minutes in assay buffer (25 mM HEPES, 3 mM MgCl2, 100 mM NaCl, 1 mM EDTA, 10 uM GDP, […], pH 8.0). These membranes were then incubated for 30 min at 30° C. with [^35S]GTPgS (1 nM) in the presence of vehicle, test compound (one to eight concentrations), or excess 8-OH-DPAT to define maximum agonist response. All reactions are terminated by the addition of ice cold Tris buffer followed by rapid filtration using a Tom Tech® filtration device to separate bound from free [ ^35S]GTPgS. Agonists produce an increase in the amount of [^35S]GTPgS bound whereas antagonists produce no increase in binding. Bound radioactivity was counted and analyzed as above."}, "human 5-HT1A receptor": {"molecular_target": "T2, human 5-HT1A receptor (Homo sapiens, UniProt P08908)", "T2 construct": "expressed in transfected cells; membranes", "T2 sequence (P08908 1-422)": "T1 sequence (P08908 1-422)", "assay": "HC 5-HT1A affinity (radioligand binding, h5-HT1A.CHO cell membranes)", "text": "The 5-HT1A affinity of compounds of this invention was established in accordance with standard pharmaceutically accepted test procedures with representative compounds as follows:\nCloning of Human 5-HT1A Receptor:\nThe PCR cloning of the human 5-HT1A receptor subtype from a human genomic library has been described previously (Chanda et al., 1993). A stable Chinese hamster ovary cell line expressing the human 5-HT1A receptor subtype (h5-HT1A.CHO cells) was employed throughout this study. Cells were maintained in DMEM supplemented with 10% fetal calf serum, non-essential amino acids and penicillin/streptomycin.\nCells were grown to 95-100% confluency as a monolayer before membranes were harvested for binding studies. Cells were gently scraped from the culture plates, transferred to centrifuge tubes, and washed twice by centrifugation (2000 rpm for 10 min., 4° C.) in buffer (50 mM Tris; pH 7.5). The resulting pellets were aliquoted and placed at −80° C. On the day of assay, the cells were thawed on ice, and resuspended in buffer. Studies were conducted using [^3H]8-OH-DPAT as the radioligand. The binding assay was performed in 96 well microtiter plates in a final total volume of 250 μL of buffer. Competition experiments were performed by using 7 concentrations of unlabelled drug and a final ligand concentration of 1.5 nM. Non-specific binding was determined in the presence of 10 μM 5-HT. Saturation analysis was conducted by using [^3H]8-OH-DPAT at concentrations ranging from 0.3-30 nM. Following a 30 minute incubation at room temperature, the reaction was terminated by the addition of ice cold buffer and rapid filtration using a M-96 Brandel Cell Harvester (Gaithersburg, Md.) through a GF/B filter presoaked for 30 minutes in 0.5% polyethyleneimine. […]"}, "[2]": {"conditions": "two-platform spatial discrimination task; cited from earlier work"}, "rats": {"system": "rats", "conditions": "delayed nonmatching to sample radial arm maze task; cited from earlier work"}, "[3]": {"conditions": "post-training administration, autoshaping learning task; cited from earlier work"}, "[4]": {"conditions": "n=1, cloned human 5-HT1A receptor membranes"}, "[5]": {"conditions": "n=1, cloned human 5-HT1A receptor membranes, read-out: [35S]GTPgS IC50"}, "[6]": {"conditions": "n=2, membranes of CHO cells expressing human 5-HT1A, read-out: HC 5-HT1A affinity Ki"}},
  "note": "Structures can show the parent of a compound that is named as a salt. Where two headings read alike, the source gives them in different places.",
  "data": [
    {"molecule": "COc1cccc2c1O[C@@H](CN1C3CCC1CC(O)(c1ccccn1)C3)CO2", "note": "(stereo partly drawn) [Example 8, 8-{[(2S)-8-Methoxy-2,3-dihydro-1,4-benzodioxin-2-yl]methyl}-3-(2-pyridinyl)-8-azabicyclo[3.2.1]octan-3-ol]", "values": [
      {"measurement": "[35S]GTPgS Imax", "setting": "[1]; [4]", "value": 100, "unit": "%"},
      {"measurement": "IC50", "setting": "[1]; [5]", "value": 1480, "unit": "nM"},
      {"measurement": "melting point", "value": "107 to 110 °C (dec.)"},
      {"measurement": "Ki", "setting": "human 5-HT1A receptor; [6]", "value": 46, "unit": "nM"}
    ]},
    {"molecule": "COc1cccc2c1O[C@@H](CN1C3CCC1CC(O)(c1csc4ccccc14)C3)CO2", "note": "(stereo partly drawn) [Example 9, 3-(1-Benzothien-3-yl)-8-{[(2S)-8-methoxy-2,3-dihydro-1,4-benzodioxin-2-yl]methyl}-8-azabicyclo[3.2.1]octan-3-ol]", "values": [
      {"measurement": "[35S]GTPgS Imax", "setting": "[1]; [4]", "value": 100, "unit": "%"},
      {"measurement": "IC50", "setting": "[1]; [5]", "value": 36, "unit": "nM"},
      {"measurement": "melting point", "value": "162 to 164", "unit": "°C"},
      {"measurement": "Ki", "setting": "human 5-HT1A receptor; [6]", "value": 1.6, "unit": "nM"}
    ]},
    {"molecule": "CCOc1cccc2c1O[C@@H](CN1C3CCC1CC(O)(c1ccc4ccccc4c1)C3)CO2", "note": "(stereo partly drawn) (as salt: oxalate) [Example 1, (S)-8-(8-Ethoxy-2,3-dihydro-benzo[1,4]dioxin-2-ylmethyl)-3-naphthalen-2-yl-8-aza-bicyclo[3.2.1]octan-3-ol]", "values": [
      {"measurement": "melting point", "value": "126 to 129", "unit": "°C"}
    ]},
    {"molecule": "CCOc1cccc2c1O[C@@H](CN1C3CCC1CC(O)(c1ccccc1)C3)CO2", "note": "(stereo partly drawn) [Example 2, (S)-8-(8-Ethoxy-2,3-dihydro-benzo[1,4]dioxin-2-ylmethyl)-3-phenyl-8-aza-bicyclo[3.2.1]octan-3-ol]", "values": [
      {"measurement": "melting point", "value": "152 to 155", "unit": "°C"},
      {"measurement": "Ki", "setting": "human 5-HT1A receptor; [6]", "value": 3.1, "unit": "nM"}
    ]},
    {"molecule": "COc1cccc2c1O[C@@H](CN1C3CCC1CC(O)(c1ccccc1)C3)CO2", "note": "(stereo partly drawn) [Example 10, 8-{[(2S)-8-Methoxy-2,3-dihydro-1,4-benzodioxin-2-yl]methyl}-3-phenyl-8-azabicyclo[3.2.1]octan-3-ol]", "values": [
      {"measurement": "IC50", "setting": "[1]", "value": 25, "unit": "nM"},
      {"measurement": "[35S]GTPgS Imax", "setting": "[1]; [4]", "value": 100, "unit": "%"},
      {"measurement": "melting point", "value": "113 to 115", "unit": "°C"},
      {"measurement": "Ki", "setting": "human 5-HT1A receptor", "value": 1.53, "unit": "nM"}
    ]},
    {"molecule": "CCOc1cccc2c1O[C@@H](CN1C3CCC1CC(O)(c1csc4ccccc14)C3)CO2", "note": "(stereo partly drawn) [Example 3, (S)-3-Benzo[b]thiophen-3-yl-8-(8-ethoxy-2,3-dihydro-benzo[1,4]dioxin-2-ylmethyl)-8-aza-bicyclo[3.2.1]octan-3-ol]", "values": [
      {"measurement": "melting point", "value": "111 to 114", "unit": "°C"},
      {"measurement": "Ki", "setting": "human 5-HT1A receptor; [6]", "value": 16.7, "unit": "nM"}
    ]},
    {"molecule": "COc1ccccc1C1(O)CC2CCC(C1)N2C[C@H]1COc2cccc(OC)c2O1", "note": "(stereo partly drawn) [Example 6, 8-{[(2S)-8-Methoxy-2,3-dihydro-1,4-benzodioxin-2-yl]methyl}-3-(2-methoxyphenyl)-8-azabicyclo[3.2.1]octan-3-ol]", "values": [
      {"measurement": "melting point", "value": "176 to 178", "unit": "°C"},
      {"measurement": "Ki", "setting": "human 5-HT1A receptor; [6]", "value": 39, "unit": "nM"}
    ]},
    {"molecule": "COc1cccc2c1O[C@@H](CN1C3CCC1CC(O)(c1cccc(C(F)(F)F)c1)C3)CO2", "note": "(stereo partly drawn) [Example 7, 8-{[(2S)-8-Methoxy-2,3-dihydro-1,4-benzodioxin-2-yl]methyl}-3-[3-(trifluoromethyl)phenyl]-8-azabicyclo[3.2.1]octan-3-ol]", "values": [
      {"measurement": "melting point", "value": "104 to 107", "unit": "°C"},
      {"measurement": "Ki", "setting": "human 5-HT1A receptor; [6]", "value": 0.33, "unit": "nM"}
    ]},
    {"molecule": "COc1cccc2c1O[C@@H](CN1C3CCC1CC(O)(c1ccc4ccccc4c1)C3)CO2", "note": "(stereo partly drawn) [Example 11]", "values": [
      {"measurement": "IC50", "setting": "[1]", "value": 9.9, "unit": "nM"},
      {"measurement": "[35S]GTPgS Imax", "setting": "[1]; [4]", "value": 100, "unit": "%"},
      {"measurement": "melting point", "value": "129 to 132", "unit": "°C"},
      {"measurement": "Ki", "setting": "human 5-HT1A receptor", "value": 0.81, "unit": "nM"}
    ]},
    {"molecule": "CCOc1cccc2c1O[C@@H](CN1C3CCC1CC(O)(c1ccccn1)C3)CO2", "note": "(stereo partly drawn) [Example 4, 8-{[(2S)-8-Ethoxy-2,3-dihydro-benzo[1,4]dioxin-2-yl]methyl)-3-pyridin-2-yl-8-aza-bicyclo[3.2.1]octan-3-ol]", "values": [
      {"measurement": "melting point", "value": "95 to 99", "unit": "°C"},
      {"measurement": "Ki", "setting": "human 5-HT1A receptor; [6]", "value": 61.6, "unit": "nM"}
    ]},
    {"molecule": "CCOc1cccc2c1O[C@@H](CN1C3CCC1CC(O)(c1cccc(C(F)(F)F)c1)C3)CO2", "note": "(stereo partly drawn) [Example 5, 8-{[(2S)-8-Ethoxy-2,3-dihydro-benzo[1,4]dioxin-2-yl]methyl)-3-(3-trifluoromethylphenyl)-8-aza-bicyclo[3.2.1]octan-3-ol]", "values": [
      {"measurement": "melting point", "value": "86 to 90", "unit": "°C"},
      {"measurement": "Ki", "setting": "human 5-HT1A receptor; [6]", "value": 2.9, "unit": "nM"}
    ]},
    {"molecule": "COc1ccccc1N1CCN(CCN(C(=O)C2CCCCC2)c2ccccn2)CC1", "note": "[WAY-100635]", "values": [
      {"measurement": "effect on impairment of spatial learning caused by intrahippocampal injection of CPP", "setting": "[2]", "value": "prevented the impairment of spatial learning"},
      {"measurement": "effect on cognitive impairment induced by MK801", "setting": "rats", "value": "significantly reduced the cognitive impairment"},
      {"measurement": "effect on learning deficit induced by scopolamine", "setting": "[3]", "value": "reversed the learning deficit"}
    ]},
    {"molecule": "CCOc1cccc2c1O[C@@H](CN1C3CCC1CC(O)(c1ccc4ccccc4c1)C3)CO2", "note": "(stereo partly drawn) [Example 1, (S)-8-(8-Ethoxy-2,3-dihydro-benzo[1,4]dioxin-2-ylmethyl)-3-naphthalen-2-yl-8-aza-bicyclo[3.2.1]octan-3-ol]", "values": [
      {"measurement": "Ki", "setting": "human 5-HT1A receptor; [6]", "value": 5.9, "unit": "nM"}
    ]}
  ]
}
